Measured values taken from PMC3063246, “Corticotropin Releasing Factor-Induced CREB Activation in Striatal Neurons Occurs via a Novel Gβγ Signaling Pathway” (PLoS ONE, 2011).
“Also recorded” adds a separate entry of the source.

Assays:
[1] = system: CRF-induced CREB phosphorylation in striatal neurons; test: Block of CRF-induced CREB phosphorylation; assay type: cell-based, rat; conditions: 30 min prior and concurrently, CRF 15 min
Akt/PKB = conditions: cited from earlier work
Text: (§1) Supplement pone.0018114.s002.xlsx, sheet "Sheet1" | column: Target (notes)

[2] = system: mGluR1/5 mediated calcium transienst; conditions: 5 mM as printed; ref unpublished observations; cited from earlier work
Text: as §1

[3] = system: ISO-induced CREB phosphorylation in striatal neurons; design: dose or concentration left out as unconfirmed; conditions: ref unpublished observations; cited from earlier work
Text: as §1

[4] = system: forskolin (FSK)-induced CREB phosphorylation; test: Block of forskolin-induced CREB phosphorylation; assay type: cell-based, rat; conditions: H89 2 µM; forskolin 25 µM
Method: (§2) Protocols followed are those described previously, using a well-characterized commercially available monoclonal antibody directed against the Ser133 phosphorylated version of CREB (see below), [66], [70]–[72]. Briefly, cultured striatal neurons (8–10 d.i.v.) were incubated in a Tyrode's solution containing TTX (1 µM) and AP-5 (25 µM) at room temperature for 1.5 hr. Unless noted otherwise, cell stimulations were performed as follows: vehicle (15 min); agonist stimulations were 15 min, antagonist exposure was 30 min prior to agonist stimulation, except PTX and CTX (18 hr pre-treatment), and concurrently with agonist stimulation. […] Data were quantified with Leica LAS AF (version 1.9.0; Leica).
(§3) The confocal excitation and detection settings for each experiment were determined using coverslips stimulated for 5 min with 60 mM potassium (60 K) to establish a “ceiling” for pCREB intensity. A baseline was determined via the vehicle (NS) group, so that each assay has an internal control. […] Neurons were readily discriminated from glia via size and morphology (see Figure 1 and Figure S1) and selected randomly using α-tubulin or MAP2 fluorescence, allowing the experimenter to remain blind to the CREB or pCREB signal. […] To analyze pCREB fluorescence intensity, the α-tubulin or MAP2 staining was used to draw a region of interested (ROI) of interest outlining the nucleus of each neuron. […]

PKA = conditions: cited from earlier work
Text: as §1

ROCK-II = conditions: cited from earlier work
Text: as §1

PKB = conditions: cited from earlier work
Text: as §1

MAPKAP = conditions: cited from earlier work
Text: as §1

[5] = system: BDNF-induced NFAT activation; conditions: 100 nM; cited from earlier work
Text: as §1

Ras = conditions: cited from earlier work
Text: as §1

[6] = system: ISO-induced CREB phosphorylation in striatal neurons; test: Block of isoproterenol-induced CREB phosphorylation; assay type: cell-based, rat; conditions: gallein 75 µM; ISO 10 µM
Method: as §2, §3

Rac1 = system: Rac1; design: dose or concentration left out as unconfirmed; conditions: cited from earlier work
Text: as §1

PI3K = conditions: cited from earlier work
Text: as §1

Question: What does the source list for `CCN(CC)CCCCN1c2ccccc2Oc2ccc(Cl)cc21` [10-DEBC]?
Answer: effect on CRF-induced CREB phosphorylation ([1]; inhibitor 5 µM): failed to affect CRF-induced CREB phosphorylation; IC50 (Akt/PKB): 2000 to 6000 nM

Question: For `CC(=O)OCOC(=O)CN(CC(=O)OCOC(C)=O)c1ccccc1OCCOc1ccccc1N(CC(=O)OCOC(C)=O)CC(=O)OCOC(C)=O` [BAPTA-AM], which “effect on CRF-induced CREB phosphorylation” value ([1]; inhibitor 5 µM) is on record?
Answer: Its value is “failed to block CRF-induced CREB phosphorylation; also recorded: not affected”.

Question: And the “effect on mGluR1/5 mediated calcium transients” value [2]?
Answer: Its value is “Calcium (5 mM prevents mGluR1/5 mediated calcium transienst)”.

Question: For `O=C1Nc2ccc(I)cc2/C1=C/c1cc(Br)c(O)c(Br)c1` [GW5074], which “effect on CRF-induced CREB phosphorylation” value ([1]; inhibitor 1 µM, data not shown) is on record?
Answer: Its value is “failed to affect CRF-induced CREB phosphorylation”.

Question: And the “effect on ISO-induced pCREB in striatal neurons” value [3]?
Answer: The value was “c-Raf (1 mM blocks ISO-induced pCREB in striatal neurons)”.

Question: For `O=S(=O)(NCCNC/C=C/c1ccc(Br)cc1)c1cccc2cnccc12` [H89], which “effect on CRF-induced CREB phosphorylation” value ([1]; inhibitor 2 µM) is on record?
Answer: Its value is “failed to block CRF-induced CREB phosphorylation”.

Question: What about the “effect on forskolin-induced CREB phosphorylation” value [4] of the same compound?
Answer: Its value is “attenuated forskolin (FSK)-induced CREB phosphorylation”.

Question: And the IC50 (PKA)?
Answer: The IC50 was 135 nM.

Question: And the IC50 (ROCK-II)?
Answer: The IC50 was greater than 270 nM.

Question: What about the IC50 (MAPKAP) of the same compound?
Answer: Its IC50 is greater than 270 nM.

Question: Which “effect on CRF-induced CREB phosphorylation” value ([1]; inhibitor 100 nM) does the source give for `COC(=O)[C@@]1(O)C[C@H]2O[C@]1(C)n1c3ccccc3c3c4c(c5c6ccccc6n2c5c31)C(=O)NC4` [K252a] here?
Answer: The value was “failed to affect CRF-induced CREB phosphorylation”.

Question: And the “effect on BDNF-induced NFAT activation” value [5]?
Answer: The value was “Tyrosine Kinase (100 nM prevents BDNF-induced NFAT activation)”.

Question: With `Cc1cc(C(=O)N2CCN(c3cccc(Cl)c3)CC2)n(-c2ccccc2)n1` [XRP44X] as the compound, how does the “effect on CRF-induced CREB phosphorylation” value ([1]; inhibitor 2 µM) read?
Answer: The value was “failed to affect CRF-induced CREB phosphorylation”.

Question: And the IC50 (Ras)?
Answer: The IC50 was 10 to 20 nM.

Question: Which “effect on CRF-induced CREB phosphorylation” value ([1]; inhibitor 75 µM) does the source give for `O=C1OC2(c3ccccc31)c1ccc(O)c(O)c1Oc1c2ccc(O)c1O` [gallein] here?
Answer: The value was “CRF failed to induce CREB phosphorylation in the presence of this drug; also recorded: eliminated CRF-induced CREB phosphorylation”.

Question: And the “effect on ISO-induced CREB phosphorylation” value [6]?
Answer: The value was “should not affect ISO-dependent CREB phosphorylation. Indeed, this was in fact the case; also recorded: had no effect on CREB phosphorylation”.

Question: And the Rac1 activation inhibition (Rac1)?
Answer: Its Rac1 activation inhibition is “inhibits PI3K and Rac1 activation”.

Question: What about the PI3K inhibition (PI3K) of the same compound?
Answer: The PI3K inhibition was “inhibits PI3K”.
